Data taken from PubChem BioAssay (NCI).
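Dose response: 5 concentrations. Exposure: 48 h. Format: 96-well plates. Endpoint: linear interpolation; highest concentration if not reached. At the TGI there is no net growth.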

Legend:
Assay in all cases: NCI anticancer screen, dose series, 48 h
786-0 renal = tested on: 786-0 renal
A498 renal = tested on: A498 renal
HS 578T breast = tested on: HS 578T breast
K-562 leukemia = tested on: K-562 leukemia
MCF7 breast = tested on: MCF7 breast
MDA-MB-435 = tested on: MDA-MB-435
NCI/ADR-RES ovarian = tested on: NCI/ADR-RES ovarian
OVCAR-3 ovarian = tested on: OVCAR-3 ovarian
RPMI-8226 leukemia = tested on: RPMI-8226 leukemia
SF-268 CNS = tested on: SF-268 CNS

SMILES: C[n+]1ccccc1/C1=c2\cc/c([nH]2)=C(\c2cccc[n+]2C)C2=N/C(=C(/c3cccc[n+]3C)C3C=CC(N3)/C(c3cccc[n+]3C)=C3/C=CC1=N3)C=C2
- TGI (786-0 renal): > 100 µM
- TGI (A498 renal): > 100 µM
- TGI (HS 578T breast): > 100 µM
- TGI (K-562 leukemia): > 100 µM
- TGI (MCF7 breast): > 100 µM
- TGI (MDA-MB-435): > 100 µM
- TGI (NCI/ADR-RES ovarian): > 100 µM
- TGI (OVCAR-3 ovarian): > 100 µM
- TGI (RPMI-8226 leukemia): > 100 µM
- TGI (SF-268 CNS): > 100 µM

SMILES: O=C(C1OC1c1cccc([N+](=O)[O-])c1)C12CC3CC(CC(C3)C1)C2 (stereo not given)
- TGI (786-0 renal): 7.1 µM
- TGI (A498 renal): 14.2 µM
- TGI (HS 578T breast): 14.3 µM
- TGI (K-562 leukemia): 13.2 µM
- TGI (MCF7 breast): 12.8 µM
- TGI (MDA-MB-435): 12.2 µM
- TGI (NCI/ADR-RES ovarian): 9.74 µM
- TGI (OVCAR-3 ovarian): 12.5 µM
- TGI (RPMI-8226 leukemia): 6.18 µM
- TGI (SF-268 CNS): 9.18 µM

SMILES: COc1cc(OC)c(C2(c3c(OC(C)C)c(=O)c3=O)SCCCS2)cc1OC
- TGI (786-0 renal): > 100 µM
- TGI (A498 renal): > 100 µM
- TGI (HS 578T breast): > 100 µM
- TGI (K-562 leukemia): > 100 µM
- TGI (MCF7 breast): > 100 µM
- TGI (MDA-MB-435): > 100 µM
- TGI (NCI/ADR-RES ovarian): > 100 µM
- TGI (OVCAR-3 ovarian): > 100 µM
- TGI (RPMI-8226 leukemia): > 100 µM
- TGI (SF-268 CNS): > 100 µM

SMILES: CN(C)N=Nc1ccc2[nH]c(=O)[nH]c2c1
- TGI (786-0 renal): > 100 µM
- TGI (A498 renal): > 100 µM
- TGI (HS 578T breast): > 100 µM
- TGI (K-562 leukemia): > 100 µM
- TGI (MCF7 breast): > 100 µM
- TGI (MDA-MB-435): > 100 µM
- TGI (NCI/ADR-RES ovarian): > 100 µM
- TGI (OVCAR-3 ovarian): > 100 µM
- TGI (RPMI-8226 leukemia): > 100 µM
- TGI (SF-268 CNS): > 100 µM

SMILES: CCC(=O)Nc1ccc(NCC(=O)Nc2ccc(OC)cc2)cc1
- TGI (786-0 renal): 46.4 µM
- TGI (A498 renal): 87.9 µM
- TGI (HS 578T breast): > 100 µM
- TGI (K-562 leukemia): > 100 µM
- TGI (MCF7 breast): 33.3 µM
- TGI (MDA-MB-435): > 100 µM
- TGI (NCI/ADR-RES ovarian): 85.7 µM
- TGI (OVCAR-3 ovarian): 78.6 µM
- TGI (RPMI-8226 leukemia): 90.5 µM
- TGI (SF-268 CNS): 39.7 µM

SMILES: CCOC(=O)c1nc2cc(C(F)(F)F)ccc2nc1Oc1ccc(F)cc1
- TGI (786-0 renal): > 100 µM
- TGI (A498 renal): > 100 µM
- TGI (HS 578T breast): > 100 µM
- TGI (K-562 leukemia): > 100 µM
- TGI (MCF7 breast): > 100 µM
- TGI (MDA-MB-435): > 100 µM
- TGI (NCI/ADR-RES ovarian): > 100 µM
- TGI (OVCAR-3 ovarian): > 100 µM
- TGI (RPMI-8226 leukemia): > 100 µM
- TGI (SF-268 CNS): > 100 µM

SMILES: COc1cccc2cc(C(=O)NC34CC5CC(CC(C5)C3)C4)c(=N)oc12
- TGI (786-0 renal): > 100 µM
- TGI (A498 renal): > 100 µM
- TGI (HS 578T breast): > 96.7 µM
- TGI (K-562 leukemia): > 100 µM
- TGI (MCF7 breast): > 100 µM
- TGI (MDA-MB-435): > 100 µM
- TGI (NCI/ADR-RES ovarian): > 100 µM
- TGI (OVCAR-3 ovarian): > 73.2 µM
- TGI (RPMI-8226 leukemia): > 77.9 µM
- TGI (SF-268 CNS): > 100 µM

SMILES: CN(C)c1ccc(/C=C(\NC(=O)c2ccccc2)C(=O)NC(Cc2c[nH]c3ccccc23)C(=O)O)cc1 (stereo not given)
- TGI (786-0 renal): > 100 µM
- TGI (A498 renal): > 100 µM
- TGI (HS 578T breast): > 100 µM
- TGI (K-562 leukemia): > 100 µM
- TGI (MCF7 breast): > 100 µM
- TGI (MDA-MB-435): > 100 µM
- TGI (NCI/ADR-RES ovarian): > 100 µM
- TGI (OVCAR-3 ovarian): > 100 µM
- TGI (RPMI-8226 leukemia): > 100 µM
- TGI (SF-268 CNS): > 100 µM

SMILES: O=c1c2c3c(sc2nc2n1N=CN(c1ccc(F)cc1)C2)CCCC3
- TGI (786-0 renal): > 100 µM
- TGI (A498 renal): > 100 µM
- TGI (HS 578T breast): > 100 µM
- TGI (K-562 leukemia): > 100 µM
- TGI (MCF7 breast): > 100 µM
- TGI (MDA-MB-435): > 100 µM
- TGI (NCI/ADR-RES ovarian): > 100 µM
- TGI (OVCAR-3 ovarian): > 100 µM
- TGI (RPMI-8226 leukemia): > 100 µM
- TGI (SF-268 CNS): > 100 µM

SMILES: C1=NCCOCCN=Cc2ccc(cc2)OCc2cccc(n2)COc2ccc1cc2
- TGI (786-0 renal): > 100 µM
- TGI (A498 renal): > 100 µM
- TGI (HS 578T breast): > 100 µM
- TGI (K-562 leukemia): > 100 µM
- TGI (MCF7 breast): > 100 µM
- TGI (MDA-MB-435): > 100 µM
- TGI (NCI/ADR-RES ovarian): > 100 µM
- TGI (OVCAR-3 ovarian): > 100 µM
- TGI (RPMI-8226 leukemia): > 100 µM
- TGI (SF-268 CNS): > 100 µM

SMILES: C#C[C@]1(O)CC[C@H]2[C@@H]3CCC4=C/C(=N/OC(=O)c5cccc6c(=O)c7ccccc7[nH]c56)CCC4[C@H]3CC[C@@]21CC (stereo not given in full)
- TGI (786-0 renal): > 39.6 µM
- TGI (A498 renal): > 100 µM
- TGI (HS 578T breast): > 100 µM
- TGI (K-562 leukemia): > 82.3 µM
- TGI (MCF7 breast): > 93.5 µM
- TGI (MDA-MB-435): > 100 µM
- TGI (NCI/ADR-RES ovarian): > 100 µM
- TGI (OVCAR-3 ovarian): > 61.1 µM
- TGI (RPMI-8226 leukemia): 10.6 µM
- TGI (SF-268 CNS): > 100 µM

SMILES: Cc1cc(NS(=O)(=O)c2ccc(Nc3c4ccccc4nc4c(C(=O)NCCO)cccc34)cc2)no1
- TGI (786-0 renal): > 100 µM
- TGI (A498 renal): > 100 µM
- TGI (HS 578T breast): > 100 µM
- TGI (K-562 leukemia): > 100 µM
- TGI (MCF7 breast): 45.5 µM
- TGI (MDA-MB-435): > 100 µM
- TGI (NCI/ADR-RES ovarian): > 100 µM
- TGI (OVCAR-3 ovarian): > 100 µM
- TGI (RPMI-8226 leukemia): 79.3 µM
- TGI (SF-268 CNS): > 100 µM

SMILES: O=C(NC1(C(=O)O)CCCC1)c1ccccc1
- TGI (786-0 renal): > 100 µM
- TGI (A498 renal): > 100 µM
- TGI (HS 578T breast): > 100 µM
- TGI (K-562 leukemia): > 100 µM
- TGI (MCF7 breast): > 100 µM
- TGI (MDA-MB-435): > 100 µM
- TGI (NCI/ADR-RES ovarian): > 100 µM
- TGI (OVCAR-3 ovarian): > 100 µM
- TGI (RPMI-8226 leukemia): > 100 µM
- TGI (SF-268 CNS): > 100 µM

SMILES: C=CCn1c(-c2ccc(Cl)cc2)csc1=Nc1ccccc1OC
- TGI (786-0 renal): > 100 µM
- TGI (A498 renal): > 100 µM
- TGI (HS 578T breast): > 100 µM
- TGI (K-562 leukemia): 19.4 µM
- TGI (MCF7 breast): > 100 µM
- TGI (MDA-MB-435): > 100 µM
- TGI (NCI/ADR-RES ovarian): > 91.6 µM
- TGI (OVCAR-3 ovarian): > 100 µM
- TGI (RPMI-8226 leukemia): > 100 µM
- TGI (SF-268 CNS): > 100 µM

SMILES: O=P1(Cc2ccccc2)c2ccccc2-c2ccccc21
- TGI (786-0 renal): > 100 µM
- TGI (A498 renal): 38.1 µM
- TGI (HS 578T breast): > 72 µM
- TGI (K-562 leukemia): > 100 µM
- TGI (MCF7 breast): > 39.3 µM
- TGI (MDA-MB-435): 12.3 µM
- TGI (NCI/ADR-RES ovarian): > 100 µM
- TGI (OVCAR-3 ovarian): > 55.4 µM
- TGI (RPMI-8226 leukemia): 4.61 µM
- TGI (SF-268 CNS): > 100 µM

SMILES: CC(=O)c1c(O)n(-c2ccc(C)cc2)c(=O)c2c(N)n[nH]c12
- TGI (786-0 renal): > 100 µM
- TGI (A498 renal): > 100 µM
- TGI (HS 578T breast): > 100 µM
- TGI (K-562 leukemia): > 100 µM
- TGI (MCF7 breast): > 100 µM
- TGI (MDA-MB-435): > 100 µM
- TGI (NCI/ADR-RES ovarian): > 100 µM
- TGI (OVCAR-3 ovarian): > 100 µM
- TGI (RPMI-8226 leukemia): > 100 µM
- TGI (SF-268 CNS): > 100 µM

SMILES: N#Cc1c(-c2ccc([N+](=O)[O-])cc2)cc(-c2ccc(Nc3ccnc4cc(Cl)ccc34)cc2)nc1N
- TGI (786-0 renal): 3.02 µM
- TGI (A498 renal): 51.7 µM
- TGI (HS 578T breast): 29.9 µM
- TGI (K-562 leukemia): > 33.1 µM
- TGI (MCF7 breast): 4.73 µM
- TGI (MDA-MB-435): 17.5 µM
- TGI (NCI/ADR-RES ovarian): 26.8 µM
- TGI (OVCAR-3 ovarian): 15.8 µM
- TGI (RPMI-8226 leukemia): 15 µM
- TGI (SF-268 CNS): 42.2 µM

SMILES: Cc1cc(N(CCC#N)CCC#N)ccc1/C(N=Nc1ccc([N+](=O)[O-])cc1)=N\NC(=O)c1ccccc1
- TGI (786-0 renal): > 100 µM
- TGI (A498 renal): 74 µM
- TGI (HS 578T breast): 64.5 µM
- TGI (K-562 leukemia): > 100 µM
- TGI (MCF7 breast): > 100 µM
- TGI (MDA-MB-435): > 100 µM
- TGI (NCI/ADR-RES ovarian): > 100 µM
- TGI (OVCAR-3 ovarian): > 100 µM
- TGI (RPMI-8226 leukemia): > 100 µM
- TGI (SF-268 CNS): > 100 µM

SMILES: Nc1c2cc3ccc2nc2ccc(cc12)OCCOCCOCCOCCOCCOCCO3
- TGI (786-0 renal): > 10 µM
- TGI (A498 renal): > 10 µM
- TGI (HS 578T breast): > 10 µM
- TGI (K-562 leukemia): > 10 µM
- TGI (MCF7 breast): > 10 µM
- TGI (MDA-MB-435): > 10 µM
- TGI (NCI/ADR-RES ovarian): > 10 µM
- TGI (OVCAR-3 ovarian): > 10 µM
- TGI (RPMI-8226 leukemia): > 10 µM
- TGI (SF-268 CNS): > 10 µM

SMILES: CCNC(=S)NNC(=O)CSc1nc2ccc(I)cc2c(=O)n1Cc1ccccc1
- TGI (786-0 renal): > 100 µM
- TGI (A498 renal): > 78.2 µM
- TGI (HS 578T breast): > 100 µM
- TGI (K-562 leukemia): > 100 µM
- TGI (MCF7 breast): > 100 µM
- TGI (MDA-MB-435): > 100 µM
- TGI (NCI/ADR-RES ovarian): > 100 µM
- TGI (OVCAR-3 ovarian): > 100 µM
- TGI (RPMI-8226 leukemia): > 100 µM
- TGI (SF-268 CNS): > 100 µM
